From ChEMBL document CHEMBL3862035, “In Silico Discovery and Validation of Amide Based Small Molecule Targeting the Enzymatic Site of Shiga Toxin” (J Med Chem, 2016)
The source made the active and inactive calls. The calls are words filed in the database; no cut-off is given here.

Assays:
[1] = Cytotoxicity against African green monkey Vero cells incubated for 24 hrs by neutral red uptake assay; assay type: toxicity, cell-based; details: chlorocebus sabaeus; for MNTC at 24 h: read-out: MTD
Mus musculus [2] = experiment: Inhibition of Shigella dysenteriae Shiga toxin-induced mortality in Balb/c mouse exposed to 5 x LD50 Shigella toxin assessed as reduction in symptomatic effects of toxin at 2 mM, ip preincubated with Stx for 1 hr measured after 0 to 14 days; assay type: functional, organism-based
Mus musculus [3] = experiment: Inhibition of Shigella dysenteriae Shiga toxin-induced mortality in Balb/c mouse exposed to 5 x LD50 Shigella toxin assessed as increase in mouse survival at 2 mM, ip dosed 1 hr before toxin injection measured after 24 to 48 hrs; assay type: functional, organism-based
Mus musculus [4] = experiment: Inhibition of Shigella dysenteriae Shiga toxin-induced mortality in Balb/c mouse exposed to 5 x LD50 Shigella toxin assessed as increase in mouse survival at 2 mM, ip dosed 1 after toxin injection measured after 24 to 48 hrs; assay type: functional, organism-based
Mus musculus [5] = experiment: Inhibition of Shigella dysenteriae Shiga toxin-induced mortality in Balb/c mouse exposed to 5 x LD50 Shigella toxin assessed as increase in mouse survival at 2 mM, ip preincubated with Stx for 1 hr measured after 0 to 14 days; assay type: functional, organism-based
Mus musculus [6] = experiment: Toxicity in Balb/c mouse at 2 mM, ip measured after 0 to 14 days; assay type: organism-based; details: in vivo, 2000 µM
[7] = target: T1, Shiga toxin subunit A (Shigella dysenteriae) (UniProt Q9FBI2)
T1 sequence (whole entry): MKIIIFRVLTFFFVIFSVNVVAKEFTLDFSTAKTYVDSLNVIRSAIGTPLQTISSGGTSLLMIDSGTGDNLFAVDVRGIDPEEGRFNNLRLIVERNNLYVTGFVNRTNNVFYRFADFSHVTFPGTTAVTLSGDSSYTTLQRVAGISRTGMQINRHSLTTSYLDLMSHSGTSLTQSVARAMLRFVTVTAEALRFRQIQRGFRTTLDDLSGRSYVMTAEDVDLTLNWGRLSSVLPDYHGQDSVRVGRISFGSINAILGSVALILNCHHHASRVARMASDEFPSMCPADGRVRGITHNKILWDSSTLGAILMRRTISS

[8] = Inhibition of Shigella dysenteriae type 2 Shiga toxin in African green monkey Vero cells assessed as inhibition of Stx-induced cytotoxicity incubated for 10 hrs by MTS/PMS assay; assay type: cell-based

With `CC(=O)c1ccccc1NC(=O)c1ccc([N+](=O)[O-])cc1` as the compound, how does the MNTC at 24 h [1] read?
Its MNTC at 24 h is 17.3 µM.

For `Nc1ncnc2c1ncn2[C@@H]1O[C@H](COP(=O)(O)O)[C@@H](O)[C@H]1O` [ADENOSINE PHOSPHATE], which MNTC at 24 h [1] is on record?
Its MNTC at 24 h is 75 µM.

For `Cc1ncnc2nc[nH]c12`, which MNTC at 24 h [1] is on record?
The MNTC at 24 h was 9.3 µM.

Which results are given for `CC(=O)c1ccccc1NC(=O)/C=C\c1ccccc1`?
inhibition (Mus musculus [2]): Active; inhibition (Mus musculus [3]): Active; inhibition (Mus musculus [4]): Active; inhibition (Mus musculus [5]): Active; CC50 at 24 h [1]: 29.7 µM; MNTC at 24 h [1]: 6.96 µM; Activity (Mus musculus [6]): Non-Toxic

For `Nc1ncnc2nn[nH]c12`, which MNTC at 24 h [1] is on record?
The MNTC at 24 h was 18.7 µM.

For `Nc1ccncn1`, which MNTC at 24 h [1] is on record?
The MNTC at 24 h was 250 µM.

Which MNTC at 24 h [1] does the source give for `S=C1N=CN=C2NC=NC12` (centres undefined) here?
The MNTC at 24 h was 18.7 µM.

Which inhibition (Mus musculus [2]) does the source give for `O=C(NCCNCCSc1ccccc1)c1ccc([N+](=O)[O-])cc1` here?
Its inhibition is “Active”.

And the inhibition (Mus musculus [3])?
Its inhibition is “Active”.

What about the inhibition (Mus musculus [4]) of the same compound?
The inhibition was “Active”.

What about the inhibition (Mus musculus [5]) of the same compound?
Its inhibition is “Active”.

And the CC50 at 24 h [1]?
The CC50 at 24 h was 177 µM.

And the MNTC at 24 h [1]?
The MNTC at 24 h was 15 µM.

What about the Activity (Mus musculus [6]) of the same compound?
Its Activity is “Non-Toxic”.

Which MNTC at 24 h [1] does the source give for `O=C(/C=C\c1ccccc1)NCCO` here?
The MNTC at 24 h was 31.6 µM.

Which MNTC at 24 h [1] does the source give for `O=C(/C=C/c1cccs1)c1ccccc1O` here?
Its MNTC at 24 h is 17 µM.

With `Nc1nc2[nH]cnc2c(=O)[nH]1` as the compound, how does the ΔTm [7] read?
Its ΔTm is 4.45 °C.

For `COc1ccc(/C=C/C(=O)c2ccccc2O)cc1`, which MNTC at 24 h [1] is on record?
The MNTC at 24 h was 7.35 µM.

For `O=C1NC(=O)C2N=CNC2N1` (centres undefined), which MNTC at 24 h [1] is on record?
Its MNTC at 24 h is 9.3 µM.

Which MNTC at 24 h [1] does the source give for `O=C(NCCNCCSc1ccccc1)C1CCCCC1` here?
The MNTC at 24 h was 38 µM.

Which results are given for `CC(=O)c1ccccc1NC(=O)c1ccccc1F`?
inhibition (Mus musculus [2]): Active; inhibition (Mus musculus [3]): Active; inhibition (Mus musculus [4]): Active; inhibition (Mus musculus [5]): Active; CC50 at 24 h [1]: 120 µM; MNTC at 24 h [1]: 37 µM; Activity (Mus musculus [6]): Non-Toxic

With `CCCSCCNCCNC(=O)/C=C/c1ccccc1` as the compound, how does the inhibition (Mus musculus [2]) read?
The inhibition was “Active”.

And the inhibition (Mus musculus [3])?
The inhibition was “Active”.

And the inhibition (Mus musculus [4])?
The inhibition was “Active”.

What about the inhibition (Mus musculus [5]) of the same compound?
The inhibition was “Active”.

And the CC50 at 24 h [1]?
Its CC50 at 24 h is 123 µM.

And the MNTC at 24 h [1]?
Its MNTC at 24 h is 38 µM.

What about the Activity (Mus musculus [6]) of the same compound?
Its Activity is “Non-Toxic”.

With `CC(=O)c1ccccc1NC(=O)c1ccc(F)cc1` as the compound, how does the MNTC at 24 h [1] read?
Its MNTC at 24 h is 10 µM.

Which MNTC at 24 h [1] does the source give for `CCCSCCNCCNC(=O)c1ccc(Cl)cc1` here?
The MNTC at 24 h was 124 µM.

For `O=C(/C=C/c1ccccc1)Nc1ccccc1O` [N-(2-HYDROXYPHENYL)CINNAMAMIDE], which MNTC at 24 h [1] is on record?
Its MNTC at 24 h is 32 µM.

With `O=C1NCN=C2NC=NC12` (centres undefined) as the compound, how does the ΔTm [7] read?
Its ΔTm is 2.32 °C.

And the MNTC at 24 h [1]?
The MNTC at 24 h was 125 µM.

For `Oc1ncnc2[nH]ncc12` [ALLOPURINOL], which ΔTm [7] is on record?
Its ΔTm is 3.75 °C.

And the CC50 at 24 h [1]?
Its CC50 at 24 h is 428 µM.

What about the MNTC at 24 h [1] of the same compound?
The MNTC at 24 h was 250 µM.

What about the Activity (Mus musculus [6]) of the same compound?
Its Activity is “Non-Toxic”.

Which MNTC at 24 h [1] does the source give for `Oc1cc(/C=C/c2ccccc2)nc2ccccc12` here?
The MNTC at 24 h was 9.33 µM.

Which IC50 [8] does the source give for `c1ccc(SCCNCCN2CCCC2)cc1` here?
The IC50 was 25 µM.

What about the MNTC at 24 h [1] of the same compound?
The MNTC at 24 h was 63.3 µM.

Which MNTC at 24 h [1] does the source give for `Nc1ncnc2c1ncn2[C@@H]1O[C@H](CO)[C@@H](O)[C@H]1O` [ADENOSINE] here?
Its MNTC at 24 h is 125 µM.

Which MNTC at 24 h [1] does the source give for `Nc1nc(N)c2[nH]cnc2n1` [2,6-DIAMINOPURINE] here?
The MNTC at 24 h was 9.3 µM.

Which MNTC at 24 h [1] does the source give for `O=C(/C=C/c1ccccc1F)c1ccccc1O` here?
The MNTC at 24 h was 5.67 µM.

With `O=C(/C=C/c1ccccc1)Oc1c(-c2ccccc2)oc2ccccc2c1=O` as the compound, how does the MNTC at 24 h [1] read?
Its MNTC at 24 h is 64 µM.

With `O=c1cc(-c2ccccc2F)[nH]c2ccccc12` as the compound, how does the MNTC at 24 h [1] read?
The MNTC at 24 h was 5 µM.

With `Nc1ncc2[nH]cnc2n1` [2-AMINOPURINE] as the compound, how does the MNTC at 24 h [1] read?
The MNTC at 24 h was 125 µM.

Which IC50 [8] does the source give for `CCCCSCCNCCNP(=S)(OCC)OCC` here?
Its IC50 is 25 µM.

And the MNTC at 24 h [1]?
The MNTC at 24 h was 32.3 µM.

Which MNTC at 24 h [1] does the source give for `Cc1ccsc1-c1cc(=O)c2ccccc2[nH]1` here?
Its MNTC at 24 h is 5.33 µM.

With `Nc1nc2nc[nH]c2c(=O)[nH]1` [GUANINE] as the compound, how does the CC50 at 24 h [1] read?
The CC50 at 24 h was 136 µM.

And the MNTC at 24 h [1]?
The MNTC at 24 h was 125 µM.

What about the Activity (Mus musculus [6]) of the same compound?
The Activity was “Non-Toxic”.
